From patent US9708314B2, “Heterocyclic amide compound” (NISSAN CHEMICAL INDUSTRIES, LTD., priority 2013, dated 2017) come the findings set out here.

Assay type in all cases: in vivo
In experiment [1] the test system is Echinochloa oryzacola Vasing. As to the kind of experiment: Test Example 1: herbicidal activity, application before weed generation in submerged conditions. The conditions noted are these: Application herbicide amount 320 g/ha; Seventeenth Table. Put shortly:
(§1)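 Rating, on a six-step scale from almost no effect (0) to almost completely withered (5), was made three weeks after pre-emergence treatment. Treatment was surface application to flooded pots at g/ha rates, with plants kept at 25° C. to 30° C.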

The next experiment concerns Monochoria vaginalis. The description is as above. The following applies: Application herbicide amount 320 g/ha; Seventeenth Table. In a few lines:
as §1

In another experiment the test system is Scirpus juncoides. The description is as above. The conditions noted are these: Application herbicide amount 320 g/ha; Seventeenth Table. Put shortly:
as §1

The next experiment relates to Cyperus difformis. Put plainly: Test Example 3: herbicidal effect by application to foliage (Wagner pot, water depth 0.1-0.5 cm). The following applies: Nineteenth Table; application to foliage; application herbicide amount 320 g/ha. Put shortly:
(§2)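 Grading uses six bands of herbicidal ratio, from 0 (≤5%, almost no effect) to 5 (≥90%, almost completely withered). Treatment was a stem-and-leaf spray of diluted emulsion at a fixed g/ha on 14-day-old plants; evaluation after three weeks.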

Experiment [2] deals with Echinochloa crus-galli var. crus-galli. The experiment is described as above. The conditions noted are these: Nineteenth Table; application to foliage; application herbicide amount 320 g/ha. In a few lines:
as §2

Another experiment concerns Leptochloa chinensis. The description is as above. The conditions noted are these: Nineteenth Table; application to foliage; application herbicide amount 320 g/ha. In a few lines: as §2

In the case of `Cc1nnc(NC(=O)c2ccc(C(F)(F)F)n3c(SCC4OCCO4)nnc23)o1` [1-126], the “A: Echinochloa oryzicola Vasing. (herbicidal effect grade)” value in experiment [1] is 3 (Herbicidal ratio of 40% or more and less than 70%). In addition, in the experiment with Monochoria vaginalis, the “C: Monochoria vaginalis (herbicidal effect grade)” value (“C: Monochoria vaginalis” for short) was 2 (Herbicidal ratio of 20% or more and less than 40%). Moreover, the “B: Scirpus juncoides (herbicidal effect grade)” value (from here on “B: Scirpus juncoides”) with Scirpus juncoides was 4 (Herbicidal ratio of 70% or more and less than 90%). In addition, the “E (herbicidal effect grade)” value with Cyperus difformis was 4 (Herbicidal ratio of 70% or more and less than 90%). Besides, the “H (herbicidal effect grade)” value in experiment [2] was 4 (Herbicidal ratio of 70% or more and less than 90%). Besides, the “D (herbicidal effect grade)” value in the experiment on Leptochloa chinensis is 4 (Herbicidal ratio of 70% or more and less than 90%).

Take `Cc1nnc(NC(=O)c2ccc(C(F)(F)F)n3c(NCC(F)(F)F)nnc23)o1` [1-131]: the “A: Echinochloa oryzicola Vasing. (herbicidal effect grade)” value in experiment [1] was 2 (Herbicidal ratio of 20% or more and less than 40%). In addition, the “C: Monochoria vaginalis” value in the experiment with Monochoria vaginalis is 0 (Herbicidal ratio of 5% or less (almost no effect)). In the experiment with Scirpus juncoides, the “B: Scirpus juncoides” value was 1 (Herbicidal ratio of 5% or more and less than 20%). The “E (herbicidal effect grade)” value in the experiment with Cyperus difformis is 3 (Herbicidal ratio of 40% or more and less than 70%). Further, the “H (herbicidal effect grade)” value in experiment [2] was 4 (Herbicidal ratio of 70% or more and less than 90%). In the experiment on Leptochloa chinensis, the “D (herbicidal effect grade)” value is 4 (Herbicidal ratio of 70% or more and less than 90%).

On to `CCSc1nnc2c(C(=O)Nc3nnco3)ccc(C(F)(F)F)n12` [1-106], for which the “A: Echinochloa oryzicola Vasing. (herbicidal effect grade)” value in experiment [1] is reported as 5 (Herbicidal ratio of 90% or more (almost completely withered)). Also, the “C: Monochoria vaginalis” value with Monochoria vaginalis was 4 (Herbicidal ratio of 70% or more and less than 90%). In the experiment on Scirpus juncoides, the “B: Scirpus juncoides” value is reported as 5 (Herbicidal ratio of 90% or more (almost completely withered)). In addition, the “E (herbicidal effect grade)” value in the experiment on Cyperus difformis is 5 (Herbicidal ratio of 90% or more (almost completely withered)). Also, in experiment [2], the “H (herbicidal effect grade)” value is 5 (Herbicidal ratio of 90% or more (almost completely withered)). Further, the “D (herbicidal effect grade)” value in the experiment on Leptochloa chinensis is recorded as 5 (Herbicidal ratio of 90% or more (almost completely withered)).

On to `Cc1nnc(NC(=O)c2ccc(C(F)(F)F)n3c(SCC4CC4)nnc23)o1` [1-115], for which, in experiment [1], the “A: Echinochloa oryzicola Vasing. (herbicidal effect grade)” value is listed as 5 (Herbicidal ratio of 90% or more (almost completely withered)). Also, the “C: Monochoria vaginalis” value with Monochoria vaginalis was 3 (Herbicidal ratio of 40% or more and less than 70%). In addition, the “B: Scirpus juncoides” value in the experiment with Scirpus juncoides is 4 (Herbicidal ratio of 70% or more and less than 90%). The “E (herbicidal effect grade)” value in the experiment on Cyperus difformis is 4 (Herbicidal ratio of 70% or more and less than 90%). Also, the “H (herbicidal effect grade)” value in experiment [2] is given as 5 (Herbicidal ratio of 90% or more (almost completely withered)). Besides, the “D (herbicidal effect grade)” value in the experiment with Leptochloa chinensis is 4 (Herbicidal ratio of 70% or more and less than 90%).

In the case of `Cn1nnnc1NC(=O)c1ccc(C(F)(F)F)n2c(-c3ccc(Cl)cc3)nnc12` [2-012], the “A: Echinochloa oryzicola Vasing. (herbicidal effect grade)” value in experiment [1] is reported as 5 (Herbicidal ratio of 90% or more (almost completely withered)). In addition, the “C: Monochoria vaginalis” value in the experiment with Monochoria vaginalis is 3 (Herbicidal ratio of 40% or more and less than 70%). In addition, the “B: Scirpus juncoides” value in the experiment with Scirpus juncoides was 4 (Herbicidal ratio of 70% or more and less than 90%). In addition, the “E (herbicidal effect grade)” value with Cyperus difformis is 5 (Herbicidal ratio of 90% or more (almost completely withered)). In addition, the “H (herbicidal effect grade)” value in experiment [2] is 4 (Herbicidal ratio of 70% or more and less than 90%). Moreover, the “D (herbicidal effect grade)” value in the experiment with Leptochloa chinensis is 5 (Herbicidal ratio of 90% or more (almost completely withered)).

Consider `COc1cc(OC)cc(-c2nnc3c(C(=O)Nc4nnco4)ccc(C(F)(F)F)n23)c1` [1-148], for which the “A: Echinochloa oryzicola Vasing. (herbicidal effect grade)” value in experiment [1] is given as 5 (Herbicidal ratio of 90% or more (almost completely withered)). In the experiment on Monochoria vaginalis, the “C: Monochoria vaginalis” value was 5 (Herbicidal ratio of 90% or more (almost completely withered)). Moreover, in the experiment with Scirpus juncoides, the “B: Scirpus juncoides” value was 5 (Herbicidal ratio of 90% or more (almost completely withered)). In the experiment with Cyperus difformis, the “E (herbicidal effect grade)” value was 5 (Herbicidal ratio of 90% or more (almost completely withered)). In experiment [2], the “H (herbicidal effect grade)” value is 5 (Herbicidal ratio of 90% or more (almost completely withered)). In addition, the “D (herbicidal effect grade)” value in the experiment with Leptochloa chinensis was 5 (Herbicidal ratio of 90% or more (almost completely withered)).

As for `Cc1nnc(NC(=O)c2ccc(C(F)(F)F)n3c(N(C)C(C)C)nnc23)o1` [1-132], the “A: Echinochloa oryzicola Vasing. (herbicidal effect grade)” value in experiment [1] is reported as 5 (Herbicidal ratio of 90% or more (almost completely withered)). In addition, the “C: Monochoria vaginalis” value in the experiment with Monochoria vaginalis is 4 (Herbicidal ratio of 70% or more and less than 90%). Moreover, in the experiment on Scirpus juncoides, the “B: Scirpus juncoides” value was 4 (Herbicidal ratio of 70% or more and less than 90%). Also, the “E (herbicidal effect grade)” value in the experiment on Cyperus difformis is 4 (Herbicidal ratio of 70% or more and less than 90%). The “H (herbicidal effect grade)” value in experiment [2] is reported as 5 (Herbicidal ratio of 90% or more (almost completely withered)). Also, the “D (herbicidal effect grade)” value with Leptochloa chinensis was 5 (Herbicidal ratio of 90% or more (almost completely withered)).

With `CC(C)[S+]([O-])c1nnc2c(C(=O)Nc3nnnn3C)ccc(C(F)(F)F)n12` (stereo not drawn) [2-032], the “A: Echinochloa oryzicola Vasing. (herbicidal effect grade)” value in experiment [1] is 5 (Herbicidal ratio of 90% or more (almost completely withered)). In addition, in the experiment on Monochoria vaginalis, the “C: Monochoria vaginalis” value is 5 (Herbicidal ratio of 90% or more (almost completely withered)). Further, the “B: Scirpus juncoides” value in the experiment with Scirpus juncoides is on record as 5 (Herbicidal ratio of 90% or more (almost completely withered)). Further, the “E (herbicidal effect grade)” value in the experiment with Cyperus difformis is 5 (Herbicidal ratio of 90% or more (almost completely withered)). Besides, in experiment [2], the “H (herbicidal effect grade)” value is on record as 5 (Herbicidal ratio of 90% or more (almost completely withered)). The “D (herbicidal effect grade)” value with Leptochloa chinensis is reported as 5 (Herbicidal ratio of 90% or more (almost completely withered)).

With `Cc1nnc(NC(=O)c2ccc(C(F)(F)F)n3c(CC4CC4)nnc23)o1` [1-104], the “A: Echinochloa oryzicola Vasing. (herbicidal effect grade)” value in experiment [1] was 4 (Herbicidal ratio of 70% or more and less than 90%). In addition, the “C: Monochoria vaginalis” value with Monochoria vaginalis was 2 (Herbicidal ratio of 20% or more and less than 40%). Also, in the experiment on Scirpus juncoides, the “B: Scirpus juncoides” value is 3 (Herbicidal ratio of 40% or more and less than 70%). Moreover, in the experiment on Cyperus difformis, the “E (herbicidal effect grade)” value was 4 (Herbicidal ratio of 70% or more and less than 90%). For the same molecule, the “H (herbicidal effect grade)” value in experiment [2] is listed as 5 (Herbicidal ratio of 90% or more (almost completely withered)). In addition, the “D (herbicidal effect grade)” value in the experiment on Leptochloa chinensis is 5 (Herbicidal ratio of 90% or more (almost completely withered)).

As for `O=C(Nc1nnco1)c1ccc(C(F)(F)F)n2c(N3CCCC3)nnc12` [1-139], the “A: Echinochloa oryzicola Vasing. (herbicidal effect grade)” value in experiment [1] is reported as 5 (Herbicidal ratio of 90% or more (almost completely withered)). Moreover, in the experiment on Monochoria vaginalis, the “C: Monochoria vaginalis” value is 3 (Herbicidal ratio of 40% or more and less than 70%). For the same molecule, the “B: Scirpus juncoides” value in the experiment on Scirpus juncoides is 4 (Herbicidal ratio of 70% or more and less than 90%). The “E (herbicidal effect grade)” value in the experiment on Cyperus difformis is recorded as 5 (Herbicidal ratio of 90% or more (almost completely withered)). In addition, the “H (herbicidal effect grade)” value in experiment [2] was 4 (Herbicidal ratio of 70% or more and less than 90%). Besides, the “D (herbicidal effect grade)” value in the experiment with Leptochloa chinensis is 5 (Herbicidal ratio of 90% or more (almost completely withered)).

For `Cn1nnnc1NC(=O)c1ccc(C(F)(F)F)n2c(C[S+](C)[O-])nnc12` (stereo not drawn) [2-033], the “A: Echinochloa oryzicola Vasing. (herbicidal effect grade)” value in experiment [1] was 5 (Herbicidal ratio of 90% or more (almost completely withered)). Besides, in the experiment on Monochoria vaginalis, the “C: Monochoria vaginalis” value is on record as 5 (Herbicidal ratio of 90% or more (almost completely withered)). In the experiment on Scirpus juncoides, the “B: Scirpus juncoides” value is 4 (Herbicidal ratio of 70% or more and less than 90%). Moreover, in the experiment with Cyperus difformis, the “E (herbicidal effect grade)” value is 5 (Herbicidal ratio of 90% or more (almost completely withered)). In addition, the “H (herbicidal effect grade)” value in experiment [2] is 5 (Herbicidal ratio of 90% or more (almost completely withered)). Besides, the “D (herbicidal effect grade)” value with Leptochloa chinensis is reported as 5 (Herbicidal ratio of 90% or more (almost completely withered)).

Turning to `COCCOCc1nnc2c(C(=O)Nc3nnnn3C)ccc(C(F)(F)F)n12` [2-014], the “A: Echinochloa oryzicola Vasing. (herbicidal effect grade)” value in experiment [1] is 5 (Herbicidal ratio of 90% or more (almost completely withered)). Besides, the “C: Monochoria vaginalis” value in the experiment on Monochoria vaginalis is 5 (Herbicidal ratio of 90% or more (almost completely withered)). Moreover, in the experiment with Scirpus juncoides, the “B: Scirpus juncoides” value is given as 5 (Herbicidal ratio of 90% or more (almost completely withered)). Also, the “E (herbicidal effect grade)” value in the experiment on Cyperus difformis is 5 (Herbicidal ratio of 90% or more (almost completely withered)). The “H (herbicidal effect grade)” value in experiment [2] is reported as 5 (Herbicidal ratio of 90% or more (almost completely withered)). Moreover, the “D (herbicidal effect grade)” value with Leptochloa chinensis is 5 (Herbicidal ratio of 90% or more (almost completely withered)).

Turning to `CCN(C)c1nnc2c(C(=O)Nc3nnc(C)o3)ccc(C(F)(F)F)n12` [1-134], the “A: Echinochloa oryzicola Vasing. (herbicidal effect grade)” value in experiment [1] is 3 (Herbicidal ratio of 40% or more and less than 70%). Further, in the experiment on Monochoria vaginalis, the “C: Monochoria vaginalis” value is 2 (Herbicidal ratio of 20% or more and less than 40%). Also, in the experiment with Scirpus juncoides, the “B: Scirpus juncoides” value is 3 (Herbicidal ratio of 40% or more and less than 70%). The “E (herbicidal effect grade)” value in the experiment with Cyperus difformis is 2 (Herbicidal ratio of 20% or more and less than 40%). In addition, the “H (herbicidal effect grade)” value in experiment [2] is 5 (Herbicidal ratio of 90% or more (almost completely withered)). Further, the “D (herbicidal effect grade)” value in the experiment with Leptochloa chinensis was 4 (Herbicidal ratio of 70% or more and less than 90%).
